Experimental data from patent US3975529A, “Diebenzo(B,E)thiepines” (Roussel-UCLAF, priority 1974, dated 1976).

What was measured:
[1] = system: trembling and peripherical cholinergic manifestations provoked by tremorine; test: Antitremorine activity as a function of time (Table I); type: in vivo, mice; details: for % inhibition of reactions: L (lacrymation) / % inhibition of reactions: S (salivation) / % inhibition of reactions: T (trembling): 200 mg/kg s.c. sesame oil
Procedure: The antagonism of the test compounds to the trembling and peripherical cholinergic manifestations provoked by tremorine [Everett et al, Science, Vol. 124 (1956), p. 79] was studied on mice.
The products of Examples 2 and 3 were administered subcutaneously in sesame oil solution at doses of 200 and 400 mg/kg at a volume of 25 ml/kg to groups of 10 mice. The mice receied intraperitoneal injections of 20 mg/kg of tremorine either for 4 hours, one day, 2, 3 or 4 days after injection of the test product. […] The reactions (T-trembling; S-salivation; L-lacrymation) were noted 10, 20, 30 and 60 minutes after the tremorine injection and the percent of inhibition of the different reactions at the height of the effect after injection of tremorine were noted as a function of time.

[2] = system: antinociceptive activity of oxotremorine; test: Antagonism of antinociceptive activity of oxotremorine, hot plate (Table III); type: in vivo, mice
Procedure: The antinociceptive activity of oxotremorine [Leslie, J. Pharm. Pharmae., Vol. 2 (1969), p. 248-50] was determined on mice using the hot plate method of Eddy et al [J. Pharmacol. Vol. 107 (1953), p. 385] in the presence and absence of the test product presumed to be antagonistic. The product of Example 1 was administered subcutaneously in aqueous solution at doses of 50 and 100 mg/kg to groups of 10 mice and the products of Examples 2 to 5 were subcutaneously administered in sesame oil solution at doses of 200 and 400 mg/kg to groups of 10 mice. The mice then received a single intraperitoneal injection of 0.5 mg/kg of oxotremorine either 4 hours, 1 day, 2, 3, 4 or 7 days after the test product administration. For each time considerated, the mice were placed on the hot plate one half hour after the oxotremorine administration and the time for the appearance of nociceptive refluxes consistituted by simultaneous licking of the front paws was noted. The maximum time of staying on the hot plate was fixed at 45 seconds and the percentage of animals with a reaction time (RT) less than 40 seconds in spite of oxotremorine administration was determined.

[3] = 200 mg/kg s.c. sesame oil, after 4 h
[4] = 200 mg/kg s.c. sesame oil, after 1 d
[5] = 200 mg/kg s.c. sesame oil, after 2 d
[6] = 200 mg/kg s.c. sesame oil, after 3 d
[7] = 200 mg/kg s.c. sesame oil, after 4 d
[8] = 200 mg/kg s.c. sesame oil, after 7 d
[9] = 400 mg/kg s.c. sesame oil, after 4 h
[10] = 400 mg/kg s.c. sesame oil, after 1 d
[11] = 400 mg/kg s.c. sesame oil, after 2 d
[12] = 400 mg/kg s.c. sesame oil, after 3 d
[13] = 400 mg/kg s.c. sesame oil, after 4 d
[14] = 400 mg/kg s.c. sesame oil, after 7 d

| Structure (SMILES) | % of animals with a RT less than 40 seconds [2, 3] [%] | % of animals with a RT less than 40 seconds [2, 4] [%] | % of animals with a RT less than 40 seconds [2, 5] [%] | % of animals with a RT less than 40 seconds [2, 6] [%] | % of animals with a RT less than 40 seconds [2, 7] [%] | % of animals with a RT less than 40 seconds [2, 8] [%] | % of animals with a RT less than 40 seconds [2, 9] [%] | % of animals with a RT less than 40 seconds [2, 10] [%] | % of animals with a RT less than 40 seconds [2, 11] [%] | % of animals with a RT less than 40 seconds [2, 12] [%] | % of animals with a RT less than 40 seconds [2, 13] [%] | % of animals with a RT less than 40 seconds [2, 14] [%] | other results |
| --- | --- | --- | --- | --- | --- | --- | --- | --- | --- | --- | --- | --- | --- |
| CCCCCCC(=O)OCCN1C2CCC1CC(=C1c3ccccc3CSc3ccccc31)C2 (racemic) [Example 3, dl N-(β-heptanoyloxyethyl)-11-(3'-nortropylidene)-6,11-dihydrodibenzo(b,e)thiepine] | 50 | 60 | 50 | 50 | 40 | 40 | 70 | 40 | 50 | 30 | 40 | 20 | % inhibition of reactions: L (lacrymation) ([1]; after 4 h): 90%; % inhibition of reactions: S (salivation) ([1]; after 4 h): 30%; % inhibition of reactions: T (trembling) ([1]; after 4 h): 40%; % inhibition of reactions: L (lacrymation) ([1]; after 1 d): 30%; % inhibition of reactions: S (salivation) ([1]; after 1 d): 20%; % inhibition of reactions: T (trembling) ([1]; after 1 d): 0%; % inhibition of reactions: L (lacrymation) ([1]; after 2 d): 100%; % inhibition of reactions: S (salivation) ([1]; after 2 d): 10%; % inhibition of reactions: T (trembling) ([1]; after 2 d): 100%; % inhibition of reactions: L (lacrymation) ([1]; after 3 d): 20%; % inhibition of reactions: S (salivation) ([1]; after 3 d): 0%; % inhibition of reactions: L (lacrymation) ([1]; after 4 d): 0%; % inhibition of reactions: S (salivation) ([1]; after 4 d): 10%; % inhibition of reactions: T (trembling) ([1]; after 4 d): 20%; antitremorine activity (in words) ([1]; s.c. sesame oil, mice, Table I): prolonged antitremorine activity |
| CCCCCCCCCC(=O)OCCN1C2CCC1CC(=C1c3ccccc3CSc3ccccc31)C2 (racemic) [Example 4, dl N-(β-decanoyloxyethyl)-11-(3'-nortropylidene)-6,11-dihydrodibenzo(b,e)thiepine] | 100 | 30 | 30 | 10 | 0 | 20 | 100 | 60 | 30 | 30 | 0 | 30 |  |
| CCCCCCCCCCCCCCCC(=O)OCCN1C2CCC1CC(=C1c3ccccc3CSc3ccccc31)C2 (racemic) [Example 5, dl N-(β-palmitoyloxyethyl)-11-(3'-nortropylidene)-6,11-dihydrodibenzo(b,e)thiepine] | 20 | 30 | 40 | 10 | 30 | 30 | 70 | 60 | 30 | 20 | 20 | 30 |  |
| O=C1CCCN1CC#CCN1CCCC1 [Oxotremorine, oxotremorine, reference compound] |  |  |  |  |  |  |  |  |  |  |  |  | % of animals with a RT less than 40 seconds ([2]; oxotremorine controls, 0.5 mg/kg i.p., 4 h): 10%; % of animals with a RT less than 40 seconds ([2]; oxotremorine controls, 0.5 mg/kg i.p., 1 d): 10%; % of animals with a RT less than 40 seconds ([2]; oxotremorine controls, 0.5 mg/kg i.p., 2 d): 10%; % of animals with a RT less than 40 seconds ([2]; oxotremorine controls, 0.5 mg/kg i.p., 3 d): 10%; % of animals with a RT less than 40 seconds ([2]; oxotremorine controls, 0.5 mg/kg i.p., 4 d): 0%; % of animals with a RT less than 40 seconds ([2]; oxotremorine controls, 0.5 mg/kg i.p., 7 d): 0% |
